Data on five compounds can be found in patent US4952580A, “Pesticidal polyhaloalkene derivatives” (priority 1988, dated 1990).

Assay [1] concerns root-knot nematode (Meloidogyne incognita). Put plainly: Initial Root-Knot Nematicidal Activity. Format: in vivo. As to conditions: 336 h, read-out: Percent Control; for pest or weed control at 0.312 ppm: Table 2, Application Rate 0.312 ppm; for pest or weed control at 0.625 ppm: Table 2, Application Rate 0.625 ppm; for pest or weed control at 1.25 ppm: Table 2, Application Rate 1.25 ppm; for pest or weed control at 2.5 ppm: Table 2, Application Rate 2.5 ppm; for pest or weed control at 0.078 ppm: Table 2, Application Rate 0.078 ppm; for pest or weed control at 0.313 ppm: Table 2, Application Rate 0.313 ppm. A digest of the protocol: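 Compound incorporated into Meloidogyne incognita-infested soil at 10 ppm to 0.078 ppm, then planted with tomato or cucumber seedlings. Root galling scored two weeks after planting as a knot index and converted to percent control, given as averages.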

The subject of assay [2] is root-knot nematode. Description: Systemic Activity (basipetal, foliar spray) against root-knot nematode. Format: in vivo, Meloidogyne incognita. As to conditions: 336 h, read-out: Percent Control. The method, then: (§1) Compounds of this invention were tested as follows for nematicidal and anthelmintic activity as dust formulations (initial and residual activity) and as acetone/water formulations (systemic activity). The formulations are described above.
Compounds of the invention were tested for basipetal systemic activity against the root-knot nematode. In this test, tomato plants are grown in 10.2 cm diameter fiber pots containing steam-pasteurized soil mix (50%, soil, 50% sand) until 4-6 true leaves appear. Three of the pots are then placed on a turntable in a spray hood and the plants sprayed with 50 ml of water/acetone solution containing the test compound. The soil surface is covered during the spraying to prevent spraying of the soil. After treatment, the potted plants are placed in a lighted drying chamber. The plants are then grown in a growth chamber at 25° C. for three days and inoculated with a standard nematode culture by incorporating the inoculum into the top cm of soil in the pots. The plants are returned to the growth chamber for about two weeks at which time the pots are allowed to dry until the plants begin to wilt. The roots are shaken free of soil and the degree of galling (swelling) noted as compared to galling of untreated control plants. The results are expressed as Knot Index and Percent Control as defined in the initial root-knot nematode activity tests reported above in Table 2.

Another assay has as its system Caenorhabditis elegans. Put plainly: C. Elegans Nematode Screening Test and Evaluation (in-vitro). As to conditions: Caenorhabditis elegans; for inhibition at 5 ppm / inhibition at 1.25 ppm / inhibition at 2.5 ppm: read-out: Percent Inhibition of Reproduction; for mortality at 5 ppm / mortality at 1.25 ppm / mortality at 2.5 ppm: read-out: Percent Mortality. A digest of the protocol: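 Worms (10-15 per well) in buffer with E. coli food, ampicillin and mycostatin; compound added in DMSO, 2-3 replicates per rate. Incubated 5-6 days at 20° C. Population development scored against untreated wells, noting effects such as reduced egg hatch or molting disruption.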

The next assay has as its system lesion nematode. Put plainly: Lesion Nematode Test. As to conditions: Table 5, read-out: Percent Control; for pest or weed control at 2.5 ppm: rate 2.5 ppm. Format: in vivo. The method, then:
as §1
The procedure was substantially the same as in the stunt nematode test described above except that pea seedlings were used. The results (Table 5 appended) show good control with many of the compounds at the application rates tested as compared with untreated samples (no control). "Percent Control" is defined as follows: [formula]

The subject of a further assay is stunt nematode. Put plainly: Stunt Nematode Test. Format: in vivo. As to conditions: 672 h, Table 4a; rate 5 ppm; read-out: Percent Control. The method, then:
as §1
The procedure was substantially the same as in the […] seedling, with subsequent inoculation of the soil with combined larvae and adult stunt nematodes. The samples were evaulated approximately four weeks after infestation. […] "Percent control" means the difference between average population counts between untreated and treated samples, divided by average population count of untreated sample, multiplied by 100.

Assay [3] deals with root-knot nematode. Description: Residual Root-Knot Nematicidal Activity. The class given is in vivo, Meloidogyne incognita. To be noted: read-out: Percent Control. How it is done:
as §1
The ability of nematicidal compounds of the invention to control root-knot nematode infestations in soil over a period of time after treatment was evaluated. Dust formulations of test compound (5%) were incorporated into soil samples at test compound rates of 5 and 10 ppm. Subsequently, the treated soil samples were inoculated with nematode inoculum at weekly intervals, and Knot Index and Percent Control determined on seedlings planted in the soil samples. Specifically, soil treated with test compound was placed in 7.6 cm diameter fiber pots and stored in a greenhouse. At one, two and four weeks post-treatment, the appropriate number of pots was infested with root-knot nematode eggs and larvae. A cucumber or tomato seedling was planted in each pot and evaluated approximately two weeks after the soil infestation to obtain the test results reported in Tables 3 and 3a appended.

Assay [4] deals with root-knot nematode. Description: Soil Mobility against root-knot nematode. The class given is in vivo, Meloidogyne incognita. To be noted: 336 h. A digest of the protocol:
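Soil mobility of the nematicidal test material was evaluated by placing treated, nematode-infested soil in 8 cm plastic pots stacked above two or more pots of untreated infested soil, each containing a 10 cm^3 sand layer and filter paper discs. Fifteen cm of water was dripped through, pots drained 16-18 hours, then were planted with cucumber or tomato seedlings and scored for Percent Control.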

For a further assay, the system named is cyst nematode. Put plainly: Cyst Nematode Test. The class given is in vivo. As to conditions: read-out: Percent Control; for pest or weed control at 5 ppm: Table 6, rate 5 ppm. How it is done: as §1
The procedures was substantially the same as described in the stunt nematode test except soybean seedlings were used. "Percent Control" (Table 6 appended) is as defined in the stunt nematode test results.

Setting [5] is: 672 h, Table 3, inoculation 4 weeks after treatment.
[6] abbreviates: 168 h, Table 3, inoculation 1 week after treatment.
Setting [7] is: 336 h, Table 3, inoculation 2 weeks after treatment.
[8] abbreviates: Table 7, 30 ppm, Bottom container, read-out: Percent Control.
Setting [9] is: Table 7, 30 ppm, Middle container, read-out: Percent Control.

Like-named read-outs stand apart in the source and are kept apart here.

`FC(F)=C(F)CCSc1nnc(SCc2ccc(Br)cc2)s1` [Compound 33, 2-(4-bromophenylmethylthio)-5-(3,4,4-trifluoro-3-butenylthio)-1,3,4-thiadiazole]: in assay [1], the pest or weed control at 0.312 ppm was 38%, the pest or weed control at 0.625 ppm came out at 70%, the pest or weed control at 1.25 ppm came to 84% and the pest or weed control at 2.5 ppm amounted to 97%. Also, the pest or weed control at 2500 ppm in the assay with root-knot nematode [2] (Table 8, rate 2500 ppm) is 17%. In the assay with Caenorhabditis elegans (Table 9 screen), the inhibition at 5 ppm is 100% and the mortality at 5 ppm is 100%. Also, in the assay on Caenorhabditis elegans (Table 10 evaluation), the mortality at 5 ppm is 100%, the inhibition at 1.25 ppm was determined as 100%, the mortality at 1.25 ppm turned out to be 100% and the inhibition at 2.5 ppm is 100%. Further, the mortality at 2.5 ppm with Caenorhabditis elegans (Table 10 evaluation) worked out at 100%. Moreover, in the assay with lesion nematode, the pest or weed control at 2.5 ppm is 46%. Further, in the assay with stunt nematode, the pest or weed control at 5 ppm is 52%.

As for `FC(F)=C(F)CCSc1nc(Cl)ns1` [Compound 8, 3-chloro-5-(3,4,4-trifluoro-3-butenylthio)-1,2,4-thiadiazole], the pest or weed control at 5 ppm in the assay on root-knot nematode [3] (setting [5]) was found to be 98%. Also, in assay [1], the pest or weed control at 0.078 ppm was determined as 58%, the pest or weed control at 0.312 ppm came to 100%, the pest or weed control at 0.625 ppm turned out to be 100% and the pest or weed control at 1.25 ppm came out at 100%. Besides, in assay [1], the pest or weed control at 2.5 ppm was determined as 100% and the pest or weed control at 0.156 ppm came to 95%. The pest or weed control at 5 ppm in the assay on root-knot nematode [4] (Table 7, 5 ppm, Bottom container, read-out: Percent Control) stood at 96%. The pest or weed control at 5 ppm in the assay on root-knot nematode [4] (Table 7, 5 ppm, Middle container, read-out: Percent Control) was 100%. In the assay on root-knot nematode [4] (Table 7, 5 ppm, Top container, read-out: Percent Control), the pest or weed control at 5 ppm was 100%. Moreover, the pest or weed control at 5 ppm with cyst nematode came to 92%.

Turning to `O=C(CSCCC(F)=C(F)F)OCCC(F)=C(F)F` [Compound 18, (3,4,4-trifluoro-3-butenyl) (3,4,4-trifluoro-3-butenylthio)acetate], the pest or weed control at 10 ppm in the assay with root-knot nematode [3] (setting [6]) is 0%; in the assay with root-knot nematode [3] (setting [7]), 0%; with root-knot nematode [3] (setting [5]) it was 0%; in assay [1] (Table 2, Application Rate 10.0 ppm), 100%. Further, the pest or weed control at 0.313 ppm in assay [1] amounted to 0%. Also, the pest or weed control at 0.625 ppm in assay [1] stood at 19%. The pest or weed control at 1.25 ppm in assay [1] amounted to 38%. Besides, the pest or weed control at 5 ppm in assay [1] (Table 2, Application Rate 5.0 ppm) turned out to be 99%; in the assay with lesion nematode (rate 5 ppm), 0%; in the assay on cyst nematode, 8%. Further, the pest or weed control at 30 ppm came out at 25% in the assay on root-knot nematode [4] (setting [8]); 25% in the assay on root-knot nematode [4] (setting [9]); 33% in the assay on root-knot nematode [4] (read-out: Percent Control, Table 7, 30 ppm, Top container).

As for `FC(F)=C(F)CCSc1nnc(SCc2ccccc2)s1` [Compound 32, 2-phenylmethylthio-5-(3,4,4-trifluoro-3-butenylthio)-1,3,4-thiadiazole], the pest or weed control at 5 ppm is 99% in the assay with root-knot nematode [3] (168 h, Table 3a, 5% dust, inoculation 1 week post-treatment); 99% in the assay with root-knot nematode [3] (336 h, Table 3a, 5% dust, inoculation 2 weeks post-treatment); 82% in the assay with root-knot nematode [3] (672 h, Table 3a, 5% dust, inoculation 4 weeks post-treatment); 25% in the assay with root-knot nematode [4] (Table 7a, 5% dust, 5 ppm, BOTTOM container, read-out: Percent Control); 75% in the assay on root-knot nematode [4] (Table 7a, 5% dust, 5 ppm, MIDDLE container, read-out: Percent Control); 99% in the assay on root-knot nematode [4] (Table 7a, 5% dust, 5 ppm, TOP container, read-out: Percent Control). Further, the pest or weed control at 5 ppm in the assay with stunt nematode is 84%. In assay [1], the pest or weed control at 0.078 ppm was found to be 8%. In addition, the pest or weed control at 0.156 ppm in assay [1] (Table 2, Application Rate 0.156 ppm) is 31%. Also, the pest or weed control at 0.312 ppm in assay [1] is 78%. The pest or weed control at 0.625 ppm in assay [1] was 97%; in the assay on lesion nematode (rate .625 ppm), 0%. Besides, the pest or weed control at 1.25 ppm was 99% in assay [1] and 0% with lesion nematode (rate 1.25 ppm). Further, the pest or weed control at 2.5 ppm was found to be 100% in assay [1] and 28% in the assay on lesion nematode. Besides, the pest or weed control at 2000 ppm in the assay with root-knot nematode [2] (foliar, Table 8, rate 2000 ppm) came out at 25%. In the assay on Caenorhabditis elegans (Table 9 screen), the inhibition at 5 ppm amounted to 100%. The mortality at 5 ppm in the assay on Caenorhabditis elegans (Table 9 screen) was 100%; in the assay on Caenorhabditis elegans (Table 10 evaluation), 8%. In addition, in the assay with Caenorhabditis elegans (Table 10 evaluation), the inhibition at 1.25 ppm stood at 25%. Further, the mortality at 1.25 ppm in the assay with Caenorhabditis elegans (Table 10 evaluation) worked out at 0%. For the same compound, in the assay with Caenorhabditis elegans (Table 10 evaluation), the inhibition at 2.5 ppm came out at 42%. In addition, the mortality at 2.5 ppm in the assay with Caenorhabditis elegans (Table 10 evaluation) came out at 0%.

Take `O=C(OCCC(F)=C(F)F)c1ccc([N+](=O)[O-])o1` [Compound 21, (3,4,4-trifluoro-3-butenyl) 5-nitro-2-furancarboxylate]: the pest or weed control at 5 ppm in the assay with root-knot nematode [3] (setting [6]) worked out at 13%; in the assay with root-knot nematode [3] (setting [7]), 8%; with root-knot nematode [3] (setting [5]), 0%. The pest or weed control at 0.313 ppm in assay [1] is 0%. Moreover, in assay [1], the pest or weed control at 0.625 ppm was 8%. In assay [1], the pest or weed control at 1.25 ppm came out at 31%. Besides, the pest or weed control at 2.5 ppm in assay [1] was 64%; in the assay with lesion nematode, 54%; with cyst nematode it was 33%. The pest or weed control at 30 ppm with root-knot nematode [4] (setting [8]) worked out at 99%; in the assay on root-knot nematode [4] (setting [9]), 96%; in the assay on root-knot nematode [4] (Table 7, 30 ppm, Top container, read-out: Percent Control), 100%.

Broadly, the inhibition is the relative decrease from the control value, in per cent. As usually defined, the mortality is the share of the test organisms that died.
